Where two headings read alike, the source gives them in different places. Peptide text beside a SMILES is read from it.
Columns and labels:
[1] = molecular target: T1, tyrosinase (from Mushroom) (Agaricus bisporus, UniProt C7FF04); assay type: biochemical; details: read-out: IC50 (mM), tyrosinase activity
Description: (§1) We followed the method of Yu, with a slight modification. L-tyrosine solution (0.5 mg/mL), sample solution, and PBS buffer were sequentially added into the 96-well plate, thoroughly mixed, and then incubated at 37 °C for 10 min, then 20 μL of tyrosinase solution (500 U/mL) was added into each well, followed by immediate placement into the enzyme marker after the reaction at 37 °C for (10 min ± 5 s). The results were analyzed at 475 nm. DPPH and ABTS free-radical-scavenging capacity assays were conducted using kits from Grace Biotechnology Co., Ltd. (Jiangsu, China).

[2] = molecular target: T1, tyrosinase (from Mushroom); assay: Inhibition kinetics, Lineweaver-Burk double inverse plot and secondary plots; assay type: biochemical; details: read-out: inhibition constant on the free enzyme, Ki; substrate L-tyrosine; peptide 0, 0.3, 0.6, 1.2 mM
Description: Based on the observation that the inhibition of tyrosinase by the synthetic peptide AHYYD was reversible, the type of inhibition was further elucidated by constructing a Lineweaver–Burk double inverse plot of the enzymatic reaction rate against the concentration of the substrate (L-tyrosine). In this plot, the intercept with the Y-axis represents 1/Vmax, while the intercept with the X-axis represents −1/Km. […] The slope of the line increased with the rise in synthetic peptide concentration, indicating a mixed type of inhibition. By using the quadratic plotting method, the slopes of the four straight lines in the Lineweaver–Burk double inverse plot were plotted against the synthetic peptide concentration.
Keeping the L-tyrosine concentration constant at 0.5 mg/mL, the concentrations of the synthetic peptide and tyrosinase were varied. The change in the OD475 absorbance value was continuously monitored at 37 °C after mixing. The enzyme concentration is plotted on the horizontal axis, while the rate of absorbance change is plotted on the vertical axis. Under the conditions of varying the peptide concentration and substrate concentration while keeping the tyrosinase solution constant, the reciprocal of the substrate concentration was plotted on the horizontal axis, and the reciprocal of the rate of absorbance change was plotted on the vertical ax.

B16F10 cells [3] = assay: Cell viability, CCK-8 assay; assay type: cell-based, mouse; details: 15–1200 μM, 48 h
Description: The B16F10 cells were obtained from FengHui Biotechnology Co., Ltd. (Hunan, China). B16F10 cell cultures from generations 10–25 were grown in medium (DMEM supplemented with 10% fetal bovine serum, 1% antibiotic–antifungal solution) in a 5% CO2 incubator at 37 °C.
Cell viability was assessed using the Cell Counting Kit-8 (CCK-8) assay. During the logarithmic growth phase, 100 µL of cell suspension was dispensed into 96-well plates, with 3000 cells per well, and the supernatant was removed after incubation at 37 °C for 24 h. Wells containing 100 µL of medium served as blank controls. Determination of viability after 48 h of sample treatment.

[4] = test system: tyrosinase activity in B16F10 cells; assay: Intracellular tyrosinase activity (L-DOPA, 475 nm); assay type: cell-based, mouse; details: B16F10, Kojic acid 350 μM, 48 h
Description: The cells in the logarithmic growth phase were seeded at a density of 2 × 10^5 cells per well in 6-well plates. After 24 h of culture, the supernatant was removed. […] After 48 h of incubation, the cells were lysed, and the cell lysates were centrifuged at 12,000 rpm for 10 min. The reaction mixture consisted of 50 µL of cell lysate supernatant, 50 µL of 1 mg/mL L-DOPA, and 50 µL of PBS buffer. The mixture was incubated at 37 °C for 1 h. The […] formation level was then measured spectrophotometrically at 475 nm. Tyrosinase activity was expressed as a percentage of the blank control.

[5] = test system: melanin content of B16F10 cells; assay: Melanin content determination; assay type: cell-based, mouse; details: B16F10, Kojic acid 350 μM, 48 h
Description: The cell culture stage for melanin content determination was as follows: the cells were washed twice with PBS buffer after 48 h of peptide treatment. Trypsin digestion was performed, and the cells were collected. The […] was removed by centrifugation for 5 min and the precipitate was lysed by dissolving it in 1 mol/L NaOH containing 10% DMSO for 1 h at 80 °C. Subsequently, the cell lysate was centrifuged at 12,000 rpm for 10 min. A total of 200 µL of the supernatant was transferred to a 96-well plate, and the absorbance was measured at 405 nm. The melanin content was then expressed as a percentage of the control group.

B16F10 cells [6] = assay: Antioxidant enzyme activity (CAT, GSH-Px, SOD) by kit; assay type: cell-based, mouse; details: B16F10, positive control 350 μM
Description: (§2) The cell culture and treatment methods were the same as those described in Section 3.12. The activities of catalase (CAT), glutathione peroxidase (GSH-Px), and superoxide dismutase (SOD) were determined using the assay kit from Nanjing Jianjian Bioengineering Research Institute (Nanjing, China). The ROS content was determined using the method provided by Biyuntian Bio-Technology Company Limited (Shanghai, China).

B16F10 cells [7] = assay: Intracellular ROS content; assay type: cell-based, mouse; details: B16F10, 75 μM
Description: as §2

[8] = ABTS free-radical-scavenging capacity assay (kit); details: synthetic peptides
Description: as §1

T1 sequence (C7FF04 1-392): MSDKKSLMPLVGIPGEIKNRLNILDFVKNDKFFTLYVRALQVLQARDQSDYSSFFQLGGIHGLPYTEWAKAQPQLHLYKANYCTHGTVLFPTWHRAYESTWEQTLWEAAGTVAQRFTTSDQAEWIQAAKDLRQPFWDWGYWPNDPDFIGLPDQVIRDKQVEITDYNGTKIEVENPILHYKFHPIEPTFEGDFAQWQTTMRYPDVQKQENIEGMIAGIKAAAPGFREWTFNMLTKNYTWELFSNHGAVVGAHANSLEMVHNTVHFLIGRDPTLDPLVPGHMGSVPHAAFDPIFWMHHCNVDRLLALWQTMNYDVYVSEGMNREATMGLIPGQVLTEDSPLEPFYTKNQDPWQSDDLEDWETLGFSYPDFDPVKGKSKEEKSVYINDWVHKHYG

C[C@H](N)C(=O)N[C@@H](Cc1c[nH]cn1)C(=O)N[C@@H](Cc1ccc(O)cc1)C(=O)N[C@@H](Cc1ccc(O)cc1)C(=O)N[C@@H](CC(=O)O)C(=O)O [AHYYD, Ala-His-Tyr-Tyr-Asp] (H-AHYYD-OH)
IC50 [1]: 2.01 ± 0.088 mM
Ki [2]: 601 µM
viability of B16F10 cells compared to the control group (B16F10 cells [3]): no significant difference

O=c1cc(CO)occ1O [Kojic acid]
reduction of intracellular tyrosinase activity [4]: 19.51%
reduction of intracellular melanin content [5]: 18.54%
increase of GSH-Px activity (B16F10 cells [6]): 52.85%
increase of SOD activity (B16F10 cells [6]): 68.92%

CC1=C(/C=C/C(C)=C/C=C/C(C)=C/C(=O)O)C(C)(C)CCC1 [tretinoin]
intracellular ROS levels, % of the untreated group (B16F10 cells [7]): 65.44%

CC[C@H](C)[C@H](NC(=O)[C@@H]1CCCN1C(=O)[C@@H](N)CCCCN)C(=O)N[C@@H](Cc1c[nH]c2ccccc12)C(=O)N[C@H](C(=O)O)[C@@H](C)O [KPIWT, Lys-Pro-Ile-Trp-Thr] (H-KPIWT-OH; N-terminus and C-terminus assumed)
IC50 ([1]; synthetic peptides, Kojic acid positive control): > 10 mM

C[C@@H](O)[C@H](N)C(=O)N[C@@H](Cc1ccccc1)C(=O)N[C@@H](CO)C(=O)NCC(=O)N[C@@H](CC(N)=O)C(=O)N[C@@H](Cc1ccc(O)cc1)C(=O)N1CCC[C@H]1C(=O)O [TFSGNYP, Thr-Phe-Ser-Gly-Asn-Tyr-Pro] (H-TFSGNYP-OH)
IC50 [1]: > 5 mM
IC50 for ABTS clearance [8]: 0.2785 mg/mL

— article PMC11355249, “In Silico Identification and Molecular Mechanism of Novel Tyrosinase Inhibitory Peptides Derived from Nacre of Pinctada martensii” (Marine Drugs, 2024)
